Laboratory results as given in patent publication US20210113501A1, “METHOD OF ADMINISTERING BETA-HYDROXY-BETA-METHYLBUTYRATE (HMB)” (Metabolic Technologies, Inc., priority 2009, published 2021).
Where two headings read alike, the source gives them in different places.

Assay: Study 2: plasma HMB and urinary HMB excretion over 24 h
Type: in vivo, human
Conditions: Study 2; for AUC plasma HMB: 24 h; for Clearance: Vd assumed 20% of body weight; for tpeak: unit as in Table 5; for AUC greater than for CaHMB capsules: over 24 hours
From the text: Human subjects. In study 1, four male and four female college-aged subjects were studied. In study 2, an additional four male and four female college-aged subjects were studied. The protocols for both studies were approved by the Iowa State University IRB and each subject gave informed consent to participate in the study. Due to the nature of the treatments, neither the subjects nor the researchers could be blinded.
Treatments. The same treatments were given to the subjects in both study groups. The three treatments were given in random order to each subject with at least a one week washout period between treatments. The treatments were supplied by Metabolic Technologies, Inc. (MTI, Ames, Iowa) and were prepared with food grade ingredients. One gram of CaHMB or the equivalent HMB in free acid in a gel form was administered to the subjects. The CaHMB capsules were obtained from a commercial supplement manufacturer (Optimum Nutrition, Aurora, Ill.) while the HMB-acid gel was prepared at MTI laboratories. Briefly, the HMB-acid was adjusted to a pH 4.5 with potassium carbonate (K2CO3) and flavors and sweeteners were then added. The 1.0 g CaHMB capsule was taken with 355 mL of water (approx. 12 oz.). The free acid gel dosage was 0.80 g and was equivalent to the free acid contained in the CaHMB in the capsule. The free acid gel treatments were either swallowed (FASW) or held sublingual for 15 seconds and then swallowed (FASL). FASW consisted of expelling the entire dose into the mouth in a 3 ml syringe, swallowing, and then following this with 355 mL of water. FASL subjects were instructed to place the entire dosage under the tongue and hold the dosage for 15 sec before swallowing. They then rinsed and followed the dose with 355 mL of water.
Study 2 design. Study 2 was conducted similar to study 1 with the following modifications. In study 2, plasma levels of HMB were measured for 1440 min (24 h) and total urine collection was also performed for measurement of urinary HMB excretion during this period. After the 180 min blood sample, the subjects were allowed to leave the laboratory and were instructed to return to the laboratory for additional blood samples at 360, 720, and 1440 min after the ingestion of the supplement. As in study 1, each subject took each of the treatments with at least a one week washout period between treatments. Samples were again stored frozen at −70° C. for analysis of plasma and urinary HMB concentrations. Pre-ingestion, 180 min and 1440 min blood samples were again assayed for the same measurements already for study 1. Subjects were provided with a standardized lunch after the 180 min blood sampling and instructed to eat this at approximately 240 min post ingestion. Following the 720 min blood sample, subjects were instructed to eat a normal evening meal before 10 pm. Subjects reported back to the laboratory the following morning for the fasted 1440 min blood sample. A urine collection container was provided and subjects collected all urine produced during the experimental 24 h experimental period. The urine was stored refrigerated when not being collected. Urine volumes were measured and samples of the total urine collection were taken and stored frozen at −70° C. until analyzed for HMB.
HMB analysis. Plasma and urine HMB were analyzed by gas chromatography/mass spectrometry (GC/MS) as previously described.(27)
Calculations and statistics. Areas under the curves were calculated for each subject using the trapezoidal method that sums the area above baseline.(51) Half-life of plasma HMB was calculated for study 2. The following equations were used:
k=(ln(Cpeak)−ln(Ctrough))/Tinterval
Peak plasma concentrations for each subject were used for Cpeak. […] Tpeak was the time at which Cpeak was measured and Tinterval is the time from Tpeak until the time at Ctrough (720 min). The extracellular fluid compartment was assumed to be 20% of body weight and calculated using equation 3 below(1). […]

SMILES | 24 h Urine HMB [mmol] | 24 h Urine HMB, % initial dose [% initial dose] | Cpeak (peak plasma HMB concentration) [nmol/mL] | Half-life of plasma HMB [h] | time to peak plasma HMB concentration [min] | AUC plasma HMB | Clearance [mL/min] | plasma HMB level at 360 and 720 min versus free acid gel (p<0.05) | tpeak [min] | 24 h Urine HMB, % initial dose (listed as FASL) [% initial dose] | Cpeak (peak plasma HMB concentration) (listed as FASL) [nmol/mL] | Half-life of plasma HMB (listed as FASL) [h] | time to peak plasma HMB concentration (listed as FASL) [min] | AUC greater than for CaHMB capsules (listed as FASL) [%] | 24 h Urine HMB, % initial dose (listed as FASW) [% initial dose] | Cpeak (peak plasma HMB concentration) (listed as FASW) [nmol/mL] | time to peak plasma HMB concentration (listed as FASW) [min] | AUC greater than for CaHMB capsules (listed as FASW) [%] | half-life (both sexes, human, plasma, oral, 0.8 g) [h] | Clearance (both sexes, human, plasma, oral, 0.8 g, read-out: Clearance) [mL/min]
CC(C)(O)CC(=O)[O-].CC(C)(O)CC(=O)[O-].[Ca+2] [CaHMB, calcium β-hydroxy-β-methylbutryate, reference compound] | 1.00 ± 0.13 | 14.7±2.0 | 131.2 ± 6.0 | 3.17 ± 0.22 | 135.0 ± 17.0 | 46,281 ± 2,717 nmol/1440 min | 53.9 ± 4.2 | slightly higher | 135 ± 17 | – | – | – | – | – | – | – | – | – | – | –
CC(C)(O)CC(=O)O [HMB-Acid Gel Sublingual, 3-hydroxy-3-methylbutyric acid] | 1.16 ± 0.17 | 17.2 ± 2.5 | 247.6 ± 19.8 | – | – | 52,886 ± 2,729 nmol/1440 min | 66.9 ± 1.6 | – | 38.8 ± 2.6 | 17.2±2.5 | 247.6 ± 19.8 | 2.51 ± 0.14 | 38.8 ± 2.6 | 14.3 | – | – | – | – | – | –
CC(C)(O)CC(=O)O [HMB-Acid Gel Swallow, 3-hydroxy-3-methylbutyric acid] | 1.21 ± 0.19 | 17.8 ± 2.9 | 238.6 ± 16.0 | – | – | 53,395 ± 2,862 nmol/1440 min | – | – | 41.9 ± 5.8 | – | – | – | – | – | 17.8±2.9 | 238.6 ± 16.0 | 41.9 ± 5.8 | 15.4 | 2.5 ± 0.13 | 67.3 ± 3.2
